Consider 2 compounds from patent publication US20180318199A1, “Pharmaceutical Composition Having Anti-Aging Properties against High-Glucose” (TAIWAN LEADER BIOTECH CORP., priority 2017, published 2018).

Each structure is given as a SMILES string. Entries after “also recorded” stand apart in the source; their conditions may differ.

Holding throughout (assay type): cell-based, human
Experiment [1] deals with pRb, cyclin D1, cyclin E, cyclin B1, CDK4, CDK6, CDK2 and Cdc2. In words: Western blot of cell-cycle regulatory proteins in HNDFs. The settings on record: 72 h; for cyclin D1, CDK4, CDK6, cyclin E and CDK2 protein levels under HG: ANM 10 μM or NAC 100 μM + HG 30 mM. The method, then:
To further clarify this effect, G1-S transition regulatory proteins are determined by immunoblotting. In FIG. 3B, western blot analysis is performed to determine the expression levels of cell-cycle regulatory proteins including, pRb, cyclin D1, cyclin E, cyclin B1, CDK4, CDK6, CDK2 and Cdc2; and GAPDH is served as an internal control.
(§1) Cells are lysed by either RIPA lysis buffer or nuclear and cytoplasmic extraction reagents (Thermo Fisher Scientific). Protein concentrations are determined by Bio-Rad protein assay reagent (Bio-Rad Laboratories, Hercules, Calif.). Equal amounts of protein samples (60 μg) are separated by 7-12% SDS-PAGE and the separated proteins are transferred onto polyvinylidene […] (PVDC) membrane overnight. The transferred protein membranes are blocked with 5% non-fat dried milk for 30 min, followed by incubation with specific primary antibodies overnight, and either horseradish peroxidase-conjugated goat anti-rabbit or anti-mouse antibodies for 2 h. The blots are detected using VL Chemi-Smart 3000 (Viogene Biotek, Sunnyvale, Calif.) with the enhanced chemiluminescence (ECL) western blotting reagent (Millipore, Billerica, Mass.).

Experiment [2] deals with HO-1 and NQO-1. As to the kind of experiment: Western blot of HO-1 and NQO-1 in HNDFs. The settings on record: ANM 10 μM or NAC 100 μM, 24 h; for HO-1 protein expression: NG and HG groups. On the procedure: In FIG. 5D, to determine the protein expression levels of HO-1, NQO-1 and Nrf2, HNDFs are incubated with ANM (10 μM) or NAC (100 μM) for 24 h. Total cell lysates are prepared and subjected to western blot analysis to monitor the expression levels of HO-1, NQO-1 and Nrf2.
as §1
A general note: In western blotting, separated proteins are transferred to a membrane and probed.

A further experiment deals with HNDFs. As to the kind of experiment: Cell-cycle distribution by flow cytometry (PI) in HNDFs. The settings on record: ANM 10 μM or NAC 100 μM + HG 30 mM, 72 h; HG 71.2%, NG 46.5%. On the procedure: Senescence is well-defined as an irreversible arrest in the G0/G1 phase of the cell-cycle, triggered by various physiological and chemical stimuli including HG. It is thus paradoxical that HG-induced senescence is associated with cell-cycle arrest. Please refer to FIG. 3A˜FIG. 3C, which are views showing HG-induced growth arrest blocked by ANM in HNDFs. As shown in the figures, to further explore this paradoxical relationship, HNDFs are treated with HG and ANM or N-acetylcysteine (NAC). In FIG. 3A, HNDFs are incubated with ANM (10 μM) or NAC (100 μM) in the presence of HG (30 mM) for 72 h. Cell-cycle distribution is measured by flow cytometer using PI. Percentage of cell population in each transition phase is shown in a histogram view.
HNDFs at a density of 5×10^5 cells in 10 cm dishes are treated with ANM or NAC in the presence or absence of HG for 72 h. Cells are collected, washed with PBS and fixed in 95% cold-ethanol, and kept at −20° C. overnight. The cell pellet is then washed again with PBS and centrifuged at 1500×g for 5 min. The pellet is re-suspended in 1 mL PI/Triton X-100 (20 μg/mL PI, 0.1% Triton X-100 and 0.2 mg/mL RNAse) and incubated on ice for 30 min. The total cellular DNA content is analyzed with a flow cytometer (Beckman Coulter FC500). Data are acquired and analyzed using CXP software (Beckman Coulter).

Another experiment relates to p53 and FoxO1. In words: Western blot of p53 and FoxO1 acetylation/phosphorylation in HNDFs. The settings on record: for HG-induced p53 phosphorylation at Ser15: ANM 10 μM or NAC 100 μM + HG 30 mM; for total p53 and FoxO1 levels: HNDFs, with or without HG; for protection against HG-induced decrease in FoxO1 phosphorylation: co-treatment with HG 30 mM. The method, then: It is well known that p16^INK4A and p21^CIP1 are regulated by transcription factors p53 and FoxO1 followed by acetylation. […] In addition, p53 phosphorylation at Ser15 by their upstream kinases promotes transcriptional activation in response to DNA damage.
To further examine the phenomenon that HG-induced p53 activation is relayed by the p38 MAPK or JNK/SAPK cascade, cells are incubated with corresponding pharmacological inhibitors, SB203580, SP600125, PD98059 and LY294002 for p38MAPK, JNK/SAPK, ERK1/2 and P13K/AKT, respectively in the presence of HG.
The protein expression levels of SIRT-1, SIRT-6, p21^CIP1, SMP30, p53, FoxO and acetylation of p53 and FoxO1 are determined by western blot analysis.
as §1

The test system of experiment [3] is HO-1 and NQO-1. In words: Western blot of HO-1 and NQO-1 in HUVECs. The settings on record: for NQO-1 expression in HUVECs: western blot, HG. On the procedure: The intracellular ROS level is quantified by utilizing DCFH-DA assay. […] However, treatment of HUVECs with ANM resulted reduced ROS levels (6.1-fold), compared with HUVECs in HG that are not treated with ANM. In addition, in FIG. 9G, western blot analysis is performed to determine the protein expression levels of HO-1 and NQO-1.
as §1

Experiment [4] relates to p38 MAPK, JNK/SAPK, AKT and ERK1/2. As to the kind of experiment: Western blot of MAPK and AKT activation in HNDFs. To be noted: ANM 10 μM or NAC 100 μM + HG 30 mM. The method, then:
Next, the possible upstream regulators of p53 activation are examined. Previous studies have shown that p38 MAPK mediated p53 activation in response to intracellular ROS generation. In FIG. 4F, this effect is further extended to its upstream regulator p38 MAPK.
as §1

As for `C=C(CCC(C)C1CCC2C3=C(C(=O)C(O)C21C)C1(C)CCC(O)C(C)C1CC3)C(C)C(=O)O` (stereo not shown) [ANM, antcin M], in experiment [1] (ANM 10 μM + HG 30 mM), the “cyclin B1 and Cdc2 levels” value was “unaffected”; the “protein Rb phosphorylation under HG” value is listed as “significantly inhibits”. In addition, the “cyclin D1, CDK4, CDK6, cyclin E and CDK2 protein levels under HG” value in experiment [1] was “upregulated”. In the experiment with HO-1 and NQO-1 [2], the NQO-1 protein expression result was “unaffected” and the HO-1 protein expression entry was “significantly increase”. Moreover, in the experiment on HNDFs, the “cell population in the G0/G1 phase” value is 49.5%. The “HG-induced p53 and FoxO1 acetylation” value with p53 and FoxO1 (ANM 10 μM + HG 30 mM, 72 h) was “barely observed”. Also, the “HG-induced p21^CIP1 expression and acetylation in p53 and FoxO1, control siRNA cells” value in the experiment on p53 and FoxO1 (ANM 10 μM + HG, 72 h) is reported as “significantly attenuated”. For the same compound, the “p21^CIP1 expression, p53/FoxO1 deacetylation, SMP30 upregulation in SIRT-1 silenced cells” value in the experiment on p53 and FoxO1 (ANM 10 μM + HG, 72 h, siSIRT-1) was “fails to inhibit”. In addition, in the experiment on p53 and FoxO1, the “HG-induced p53 phosphorylation at Ser15” value is given as “significantly blocked”; the “total p53 and FoxO1 levels” value is listed as “neither ANM nor NAC affected”; the “protection against HG-induced decrease in FoxO1 phosphorylation” value is given as “fails to protect”. Besides, in the experiment on HO-1 and NQO-1 [3] (ANM 10 μM or RES 5 μM + HG), the “HO-1 expression in HUVECs in HG” value is given as “significantly increase”. Also, in the experiment with HO-1 and NQO-1 [3], the “NQO-1 expression in HUVECs” value was “unaffected”. In addition, in experiment [4], the “HG-induced JNK/SAPK activation” value is “significantly prevents”; the “HG-induced activation of p38 MAPK” value is “significantly prevents”; the “HG-mediated decrease in AKT and ERK1/2 activity (phosphorylation)” value is “significantly rescues; also recorded: significantly blocked”.

On to `CC(=O)N[C@@H](CS)C(=O)O` [NAC, N-acetylcysteine, reference compound], for which the “cyclin D1, CDK4, CDK6, cyclin E and CDK2 protein levels under HG” value in experiment [1] was “partially rescues”. Besides, in the experiment on HO-1 and NQO-1 [2], the NQO-1 protein expression entry is “unaffected” and the HO-1 protein expression result is listed as “significantly increase”. The “cell population in the G0/G1 phase” value in the experiment with HNDFs is listed as “partially blocks”. Besides, in the experiment on p53 and FoxO1, the “HG-induced p53 phosphorylation at Ser15” value is given as “significantly blocked”; the “total p53 and FoxO1 levels” value is “neither ANM nor NAC affected”; the “protection against HG-induced decrease in FoxO1 phosphorylation” value is on record as “fails to protect”. Besides, the “NQO-1 expression in HUVECs” value in the experiment with HO-1 and NQO-1 [3] is on record as “unaffected”. Besides, in experiment [4], the “HG-induced JNK/SAPK activation” value is on record as “significantly prevents”; the “HG-induced activation of p38 MAPK” value is reported as “significantly prevents”; the “HG-mediated decrease in AKT and ERK1/2 activity (phosphorylation)” value is given as “significantly rescues; also recorded: significantly blocked”.
